Data: US20260167673A1, “NOVEL POLYPEPTIDE, POLYPEPTIDE DERIVATIVE AND USE THEREOF” (NANJING ANJI BIOTECHNOLOGY CO., LTD., priority 2023, published 2026)
Read-outs that look alike come from different tables or passages of the source. Marks after values point to notes of the source that are not given here. Where no end group is shown, it is not given here.

Assays:
Assay type in all cases: cell-based
[1] = tested on: human brain astrocytoma cells U87MG; assay: CCK8 proliferation inhibition, U87MG; conditions: 50 μM, 48 h
Experimental: (§1) Incubation was continued for 4 h in a cell incubator, an absorbance was measured at 450 nm, and a proliferation inhibition was calculated. Data was presented as mean±SD, and GraphPad Prism 5.0 statistical software was used. A t-test was used for comparison between two groups, while One-way Anova (Dunnett) was used for comparison among a plurality of groups.

[2] = tested on: human acute promyelocytic leukemia cells NB4; assay: CCK8 proliferation inhibition, NB4; conditions: NB4, 50 μM, 48 h
Experimental: as §1

[3] = tested on: human uterine epidermal cancer cells MS751; assay: CCK8 proliferation inhibition, MS751; conditions: MS751, 50 μM, 48 h
Experimental: as §1

[4] = tested on: human lymphoma cells Raji; assay: CCK8 proliferation inhibition, Raji; conditions: 50 μM, 48 h
Experimental: as §1

[5] = tested on: human lung cancer A549 cells; assay: Transwell metastasis inhibition, A549; conditions: 48 h
Experimental: Melanoma, cervical cancer, ovarian cancer, liver cancer, and lung cancer cells were seeded into transwell chambers, with 100 μL per well. Different doses of the HMMW micropeptide and the novel polypeptide HMMW15-51 were added to each chamber as a treatment group, while no drug was added to a blank group. Then, 0.6 mL of a complete culture medium containing 10% FBS was added to the lower chambers of the transwell to stimulate cell metastasis, and the cells were cultured at 5% CO2 and 37° C. for 48 h. The culture solution was discarded from the wells. The cells were fixed with methanol at room temperature for 30 min, stained with 0.1% crystal violet at room temperature for 10 min, and rinsed with clean water. The upper layer nonmetastatic cells were wiped off with a cotton swab. The cells were observed under a microscope, and four fields of view were selected to take photos and count the cells. A metastasis inhibition (MI) was calculated according to a formula: […]
where Ntest represents the number of cell metastases in the treatment group, and Ncontrol represents the number of cell metastases in the blank control group.
Data was presented as mean±SD, and GraphPad Prism 5.0 statistical software was used.

[6] = tested on: human cervical cancer epithelial cells CaSki; assay: CCK8 proliferation inhibition, CaSki; conditions: 50 μM, 48 h
Experimental: as §1

[7] = tested on: human kidney clear cell adenocarcinoma cells 786-O; assay: CCK8 proliferation inhibition, 786-O; conditions: 50 μM, 48 h
Experimental: as §1

[8] = tested on: human diffuse large B-cell lymphoma (DLBCL) cells WSU-DLCL2; assay: CCK8 proliferation inhibition, WSU-DLCL2; conditions: WSU-DLCL2, 50 μM, 48 h
Experimental: as §1

[9] = tested on: human ovarian clear cell carcinoma cells ES-2; assay: CCK8 proliferation inhibition, ES-2; conditions: ES-2, 50 μM, 48 h
Experimental: as §1

[10] = tested on: human pancreatic cancer cells ASPC-1; assay: CCK8 proliferation inhibition, ASPC-1; conditions: ASPC-1, 50 μM, 48 h
Experimental: as §1

[11] = tested on: human oral epidermoid carcinoma cells KB; assay: CCK8 proliferation inhibition, KB; conditions: 50 μM, 48 h
Experimental: as §1

[12] = tested on: human malignant melanoma cells A375; assay: CCK8 proliferation inhibition, A375; conditions: A375, 50 μM, 48 h
Experimental: as §1

[13] = tested on: human colon cancer cells SW480; assay: CCK8 proliferation inhibition, SW480; conditions: SW480, 50 μM, 48 h
Experimental: as §1

[14] = tested on: human tongue squamous cell carcinoma CAL27 cells; conditions: CAL27, 80 μM, 48 h
Experimental: After incubation was continued for 48 h, add 100 μL of CCK8 solution to each well of the 96-well plate.

[15] = tested on: human giant cell lung cancer cells 95-D; assay: CCK8 proliferation inhibition, 95-D; conditions: 50 μM, 48 h
Experimental: as §1

[16] = tested on: human small intestine cancer cells HIC; assay: CCK8 proliferation inhibition, HIC; conditions: 50 μM, 48 h
Experimental: as §1

[17] = tested on: human breast cancer cells SK-BR-3; assay: CCK8 proliferation inhibition, SK-BR-3; conditions: SK-BR-3, 50 μM, 48 h
Experimental: as §1

[18] = tested on: human ovarian cancer cells SKOV3; assay: CCK8 proliferation inhibition, SKOV3 (Example 5); conditions: SKOV3, 50 μM, 48 h
Experimental: as §1

[19] = tested on: human bladder cancer cells EJ; assay: CCK8 proliferation inhibition, EJ; conditions: 50 μM, 48 h
Experimental: as §1

[20] = tested on: human gastric cancer cells BGC-823; assay: CCK8 proliferation inhibition, BGC-823; conditions: BGC-823, 50 μM, 48 h
Experimental: as §1

[21] = tested on: human promyelocytic leukemia cells HL60; assay: CCK8 proliferation inhibition, HL60; conditions: HL60, 50 μM, 48 h
Experimental: as §1

[22] = tested on: human papillary thyroid carcinoma cells NPPA87-1; assay: CCK8 proliferation inhibition, NPPA87-1; conditions: NPPA87-1, 50 μM, 48 h
Experimental: as §1

[23] = tested on: human histiocytic lymphoma cells U937; assay: CCK8 proliferation inhibition, U937; conditions: U937, 50 μM, 48 h
Experimental: as §1

[24] = tested on: human peripheral blood B lymphocytes RPMI 8226 in multiple myeloma; assay: CCK8 proliferation inhibition, RPMI 8226; conditions: RPMI 8226, 50 μM, 48 h
Experimental: as §1

[25] = tested on: human kidney cancer cells Ketr-3; assay: CCK8 proliferation inhibition, Ketr-3; conditions: Ketr-3, 50 μM, 48 h
Experimental: as §1

[26] = tested on: human nasopharyngeal carcinoma cells CNE-2Z; assay: CCK8 proliferation inhibition, CNE-2Z; conditions: 50 μM, 48 h
Experimental: as §1

[27] = tested on: human endometrial cancer cells RL-952; assay: CCK8 proliferation inhibition, RL-952; conditions: RL-952, 50 μM, 48 h
Experimental: as §1

For “MERAGVPGFSPRRSSVEAKMQSTSCSVRKSSTVTAWPAVVLLLSWGQRRGG [HMMW]”, the “Inhibition (%)” value [1] was 62.176 ± 2.001 %, the OD [1] was 0.365 ± 0.019 and the “Inhibition (%)” value [2] was 47.692 ± 4.919 %. The OD [2] was 0.740 ± 0.070, the “Inhibition (%)” value [3] was 49.268 ± 2.531 % and the OD [3] was 0.474 ± 0.024. For the same sequence, the “Inhibition (%)” value [4] was 54.560 ± 3.675 %, the OD [4] was 0.576 ± 0.047 and the “Number of cell metastases” value ([5]; A549, 50 μmol/L) was 33 ± 20.50. For the same sequence, the “Inhibition (%)” value ([5]; A549 metastasis, 50 μmol/L) was 94.57*** %, the “Inhibition (%)” value [6] was 53.329 ± 3.884 % and the OD [6] was 0.458 ± 0.038. For the same sequence, the “Inhibition (%)” value [7] was 62.624 ± 7.014 %, the OD [7] was 0.413 ± 0.078 and the “Inhibition (%)” value [8] was 44.365 ± 2.462 %. For the same sequence, the OD [8] was 0.731 ± 0.032, the “Inhibition (%)” value [9] was 51.916 ± 0.690 % and the OD [9] was 0.464 ± 0.007. For the same sequence, the “Inhibition (%)” value [10] was 51.448 ± 4.377 %, the OD [10] was 0.497 ± 0.045 and the “Inhibition (%)” value [11] was 53.399 ± 3.971 %. For the same sequence, the OD [11] was 0.471 ± 0.040, the “Inhibition (%)” value [12] was 49.572 ± 4.128 % and the OD [12] was 0.491 ± 0.040. For the same sequence, the “Inhibition (%)” value [13] was 49.114 ± 2.626 %, the OD [13] was 0.479 ± 0.025 and the OD ([14]; Table 1, deletion mutants) was 0.260 ± 0.098. The OD ([14]; Table 2, truncated fragments) was 0.351 ± 0.078, the “Inhibition (%)” value [15] was 59.757 ± 5.365 % and the OD [15] was 0.442 ± 0.059. The “Inhibition (%)” value [16] was 50.213 ± 2.165 %, the OD [16] was 0.507 ± 0.022 and the “Inhibition (%)” value [17] was 53.710 ± 4.902 %. The OD [17] was 0.507 ± 0.054, the “Inhibition (%)” value [18] was 52.644 ± 4.018 % and the OD [18] was 0.466 ± 0.040. For the same sequence, the “Inhibition (%)” value [19] was 47.820 ± 1.486 %, the OD [19] was 0.638 ± 0.018 and the “Inhibition (%)” value [20] was 47.730 ± 4.739 %. The OD [20] was 0.510 ± 0.046, the “Inhibition (%)” value [21] was 47.264 ± 5.692 % and the OD [21] was 0.578 ± 0.062. The “Inhibition (%)” value [22] was 48.192 ± 2.999 %, the OD [22] was 0.478 ± 0.028 and the “Inhibition (%)” value [23] was 36.042 ± 2.134 %. The OD [23] was 0.855 ± 0.029, the “Inhibition (%)” value [24] was 52.930 ± 4.562 % and the OD [24] was 0.578 ± 0.056. For the same sequence, the “Inhibition (%)” value [25] was 48.708 ± 4.852 %, the OD [25] was 0.476 ± 0.045 and the “Inhibition (%)” value [26] was 50.952 ± 4.312 %. For the same sequence, the OD [26] was 0.472 ± 0.042, the “Inhibition (%)” value [27] was 50.988 ± 3.897 % and the OD [27] was 0.422 ± 0.034.
